Test results: ChEMBL document CHEMBL1133795, “Antagonists of the human CCR5 receptor as anti-HIV-1 agents. part 1: discovery and initial structure-activity relationships for 1 -amino-2-phenyl-4-(piperidin-1-yl)butanes” (Bioorg Med Chem Lett, 2001)

molecular target: T1, C-C chemokine receptor type 5 (Homo sapiens, UniProt P51681); experiment: Binding affinity towards human CCR5 receptor in Chinese hamster ovary (CHO) cells using [125I]-MIP-1 alpha as radioligand; type: cell-based
Target sequence in this assay (P51681 whole entry): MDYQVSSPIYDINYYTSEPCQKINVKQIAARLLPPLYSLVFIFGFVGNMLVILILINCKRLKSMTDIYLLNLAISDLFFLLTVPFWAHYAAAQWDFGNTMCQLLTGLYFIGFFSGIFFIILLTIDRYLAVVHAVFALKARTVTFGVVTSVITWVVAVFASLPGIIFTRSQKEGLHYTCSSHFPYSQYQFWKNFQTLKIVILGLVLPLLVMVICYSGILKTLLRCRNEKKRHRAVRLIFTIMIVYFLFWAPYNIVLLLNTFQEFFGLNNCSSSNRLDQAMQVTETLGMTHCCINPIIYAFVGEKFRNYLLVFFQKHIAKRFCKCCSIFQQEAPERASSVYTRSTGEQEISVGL

Row | SMILES | IC50 [nM]
1 | CN(C[C@@H](CCN1CCC2(CC1)C[S+]([O-])c1ccccc12)c1ccc(Cl)c(Cl)c1)S(=O)(=O)c1cccs1 (stereo partly drawn) | 60
2 | CN(C[C@@H](CCN1CCC2(CC1)C[S+]([O-])c1ccccc12)c1ccc(Cl)c(Cl)c1)S(=O)(=O)c1ccccc1Cl (stereo partly drawn) | 80
3 | CCN(C[C@@H](CCN1CCC2(CC1)CSc1ccccc12)c1ccc(Cl)c(Cl)c1)S(=O)(=O)c1ccccc1 | 10000
4 | O=S(=O)(NC[C@@H](CCN1CCC2(CC1)CSc1ccccc12)c1ccc(Cl)c(Cl)c1)c1ccccc1 | 1600
5 | CN(C[C@@H](CCN1CCC2(CC1)C[S+]([O-])c1ccccc12)c1ccc(Cl)c(Cl)c1)S(C)(=O)=O (stereo partly drawn) | 850
6 | COc1ccc(S(=O)(=O)N(C)C[C@@H](CCN2CCC3(CC2)C[S+]([O-])c2ccccc23)c2ccc(Cl)c(Cl)c2)cc1 (stereo partly drawn) | 40
7 | CN(C[C@@H](CCN1CCC2(CC1)C[S+]([O-])c1ccccc12)c1ccc(Cl)c(Cl)c1)S(=O)(=O)c1cnc2ccccc2c1 (stereo partly drawn) | 120
8 | CN(C[C@@H](CCN1CCC2(CC1)CS(=O)(=O)c1ccccc12)c1ccc(Cl)c(Cl)c1)S(=O)(=O)c1ccc([N+](=O)[O-])cc1 | 60
9 | CN(C[C@@H](CCN1CCC2(CC1)C[S+]([O-])c1ccccc12)c1ccc(Cl)c(Cl)c1)C(=O)Cc1ccccc1 (stereo partly drawn) | 640
10 | CN(C[C@@H](CCN1CCC2(CC1)C[S+]([O-])c1ccccc12)c1ccc(Cl)c(Cl)c1)S(=O)(=O)c1cccc2ccccc12 (stereo partly drawn) | 360
11 | CN(C[C@@H](CCN1CCC2(CC1)C[S+]([O-])c1ccccc12)c1ccc(Cl)c(Cl)c1)S(=O)(=O)c1ccc(-c2ccccc2)cc1 (stereo partly drawn) | 40
12 | CN(C[C@@H](CCN1CCC2(CC1)C[S+]([O-])c1ccccc12)c1ccc(Cl)c(Cl)c1)S(=O)(=O)C1CCCC1 (stereo partly drawn) | 100
13 | CN(Cc1ccccc1)C[C@@H](CCN1CCC2(CC1)CS(=O)(=O)c1ccccc12)c1ccc(Cl)c(Cl)c1 | 1000
14 | CN(C[C@@H](CCN1CCC2(CC1)C[S+]([O-])c1ccccc12)c1ccc(Cl)c(Cl)c1)S(=O)(=O)c1ccc2[nH]ccc2c1 (stereo partly drawn) | 70
15 | CN(C[C@@H](CCN1CCC2(CC1)C[S+]([O-])c1ccccc12)c1ccc(Cl)c(Cl)c1)S(=O)(=O)c1ccc2ccccc2c1 (stereo partly drawn) | 60
16 | CN(C[C@@H](CCN1CCC2(CC1)C[S+]([O-])c1ccccc12)c1ccc(Cl)c(Cl)c1)C(=O)Oc1ccccc1 (stereo partly drawn) | 780
17 | CN(C)S(=O)(=O)N(C)C[C@@H](CCN1CCC2(CC1)C[S+]([O-])c1ccccc12)c1ccc(Cl)c(Cl)c1 (stereo partly drawn) | 340

Row | SMILES | IC50 [nM]
18 | CN(C[C@@H](CCN1CCC2(CC1)C[S+]([O-])c1ccccc12)c1ccc(Cl)c(Cl)c1)S(=O)(=O)C1CCCCC1 (stereo partly drawn) | 100
19 | CN(C[C@@H](CCN1CCC2(CC1)C[S+]([O-])c1ccccc12)c1ccc(Cl)c(Cl)c1)S(=O)(=O)c1cccnc1 (stereo partly drawn) | 100
20 | CN(C[C@@H](CCN1CCC2(CC1)CSc1ccccc12)c1ccc(Cl)c(Cl)c1)S(=O)(=O)c1ccccc1 | 1000
21 | CN(C[C@@H](CCN1CCC2(CC1)C[S+]([O-])c1ccccc12)c1ccc(Cl)c(Cl)c1)S(=O)(=O)c1ccc(Cl)cc1 (stereo partly drawn) | 40
22 | CN(C[C@@H](CCN1CCC2(CC1)CS(=O)(=O)c1ccccc12)c1ccc(Cl)c(Cl)c1)S(=O)(=O)c1cccc([N+](=O)[O-])c1 | 150
23 | CCN(C[C@@H](CCN1CCC2(CC1)C[S+]([O-])c1ccccc12)c1ccc(Cl)c(Cl)c1)S(=O)(=O)c1ccccc1 (stereo partly drawn) | 130
24 | O=S(=O)(NC[C@@H](CCN1CCC2(CC1)C[S+]([O-])c1ccccc12)c1ccc(Cl)c(Cl)c1)c1ccccc1 (stereo partly drawn) | 230
25 | CCCCCCCCS(=O)(=O)N(C)C[C@@H](CCN1CCC2(CC1)C[S+]([O-])c1ccccc12)c1ccc(Cl)c(Cl)c1 (stereo partly drawn) | 1400
26 | CN(C[C@@H](CCN1CCC2(CC1)CS(=O)(=O)c1ccccc12)c1ccc(Cl)c(Cl)c1)S(=O)(=O)c1ccccc1 | 100
27 | CN(C[C@@H](CCN1CCC2(CC1)C[S+]([O-])c1ccccc12)c1ccc(Cl)c(Cl)c1)S(=O)(=O)c1cccc2cccnc12 (stereo partly drawn) | 90
28 | CN(C[C@@H](CCN1CCC2(CC1)C[S+]([O-])c1ccccc12)c1ccc(Cl)c(Cl)c1)S(=O)(=O)c1ccccc1 (stereo partly drawn) | 35
29 | CN(C[C@@H](CCN1CCC2(CC1)CS(=O)(=O)c1ccccc12)c1ccc(Cl)c(Cl)c1)S(=O)(=O)c1cccs1 | 120
30 | CN(C[C@@H](CCN1CCC2(CC1)C[S+]([O-])c1ccccc12)c1ccc(Cl)c(Cl)c1)S(=O)(=O)Cc1ccccc1 (stereo partly drawn) | 590
31 | CN(C[C@@H](CCN1CCC2(CC1)C[S+]([O-])c1ccccc12)c1ccc(Cl)c(Cl)c1)S(=O)(=O)c1cn(C)cn1 (stereo partly drawn) | 340
32 | CCN(C[C@@H](CCN1CCC2(CC1)CS(=O)(=O)c1ccccc12)c1ccc(Cl)c(Cl)c1)S(=O)(=O)c1ccccc1 | 160
33 | CN(C[C@@H](CCN1CCC2(CC1)C[S+]([O-])c1ccccc12)c1ccc(Cl)c(Cl)c1)S(=O)(=O)c1cccc(Cl)c1 (stereo partly drawn) | 70

molecular target: T1, C-C chemokine receptor type 5; experiment: (§1) Binding affinity towards human CCR5 receptor in Chinese hamster ovary (CHO) cells using [125I]-MIP-1 alpha as radioligand at a concentration of 4000 nM; type: cell-based
Target sequence in this assay (P51681 whole entry): as above

Row | SMILES | IC50 [nM]
34 | CN(C[C@@H](CCN1CCC2(CC1)C[S+]([O-])c1ccccc12)c1ccc(Cl)c(Cl)c1)S(=O)(=O)c1ccsc1 (stereo partly drawn) | > 4000

molecular target: T1, C-C chemokine receptor type 5; experiment: Binding affinity towards human CCR5 receptor in Chinese hamster ovary (CHO) cells using [125I]-MIP-1 alpha as radioligand at a concentration of 1000 nM; type: cell-based
Target sequence in this assay (P51681 whole entry, looked up): as the sequence (P51681 whole entry) above

Row | SMILES | inhibition [%]
35 | CN(C[C@@H](CCN1CCC2(CC1)C[S+]([O-])c1ccccc12)c1ccc(Cl)c(Cl)c1)C(=O)OC(C)(C)C (stereo partly drawn) | 35
36 | CN(Cc1ccccc1)C[C@@H](CCN1CCC2(CC1)C[S+]([O-])c1ccccc12)c1ccc(Cl)c(Cl)c1 (stereo partly drawn) | 40

molecular target: T1, C-C chemokine receptor type 5; experiment: Binding affinity towards human CCR5 receptor in Chinese hamster ovary (CHO) cells using [125I]-MIP-1 alpha as radioligand at a concentration of 10000 nM; type: cell-based
Target sequence in this assay (P51681 whole entry, looked up): as the sequence (P51681 whole entry) above

Row | SMILES | inhibition [%]
37 | CN(C[C@@H](CCN1CCC2(CC1)C[S+]([O-])c1ccccc12)c1ccc(Cl)c(Cl)c1)C(=O)N(C)c1ccccc1 (stereo partly drawn) | 73
38 | CN(C[C@@H](CCN1CCC2(CC1)C[S+]([O-])c1ccccc12)c1ccc(Cl)c(Cl)c1)C(=O)Nc1ccccc1 (stereo partly drawn) | 69

molecular target: T1, C-C chemokine receptor type 5; experiment: as §1; type: cell-based
Target sequence in this assay (P51681 whole entry, looked up): as the sequence (P51681 whole entry) above

Row | SMILES | inhibition [%]
39 | CN(C[C@@H](CCN1CCC2(CC1)C[S+]([O-])c1ccccc12)c1ccc(Cl)c(Cl)c1)S(=O)(=O)c1ccsc1 (stereo partly drawn) | 20
40 | CNC[C@@H](CCN1CCC2(CC1)C[S+]([O-])c1ccccc12)c1ccc(Cl)c(Cl)c1 (stereo partly drawn) | 0
41 | CN(C[C@@H](CCN1CCC2(CC1)CSc1ccccc12)c1ccc(Cl)c(Cl)c1)C(=O)c1ccccc1 | 0
42 | CN(C[C@@H](CCN1CCC2(CC1)C[S+]([O-])c1ccccc12)c1ccc(Cl)c(Cl)c1)C(=O)c1ccccc1 (stereo partly drawn) | 22
43 | CN(C[C@@H](CCN1CCC2(CC1)CS(=O)(=O)c1ccccc12)c1ccc(Cl)c(Cl)c1)C(=O)c1ccccc1 | 2
